# Assay results reported in patent US12686657B2, “Anti-inflammatory carboxamide derivatives” (BIOMEDCODE HELLAS SA, priority 2021, dated 2026).
# Key:
# C57BL/6J mice = test: In vivo LPS acute systemic inflammation model, serum cytokines and chemokines (Legendplex); parameters: key to IL-1β in sera, Average / IL-17A in sera, Average / IL-27 in sera, Average / GM-CSF in sera, Average / KC in sera, Average / MCP1 in sera, Average / IP-10 in sera, Average / MIP-1A in sera, Average / MIP-1B in sera, Average / MDC in sera, Average / IL-23 in sera, Average / TNF-α in sera, Average: serum concentration in pg/ml; IL12p70 in sera, Average / IFN-γ in sera, Average: unit: pg/ml; details: 1 μg LPS i.p.
# Method: In order to evaluate in vivo the anti-inflammatory effect of the test compounds a model of in vivo LPS acute systemic inflammation was used where C57BL/6J mice were challenged by administration of 1 μg LPS. Each one of the compounds 51 to 53 was administered to C57BL/6J mice per os in two doses of 50 mg. Two hours after administering the first dose, the animals received the second p.o. dose of each compound and were also challenged with 1 μg LPS intraperitoneally. Sera samples were collected 1.5 hrs post induction in order to measure the levels of 13 cytokines using the pro-inflammatory panel from Legendplex (cat no 740446) and following manufacturer's instructions. Four biological replicates were performed and the average and SEM were calculated with the obtained results.
# The same protocol was followed but administering compound 53 at 100 mg/kg. In this case both the levels of the 13 cytokines but also of 13 chemokines were measured, using the pro-inflammatory panel from Legendplex (cat no 740007).
# The anti-inflammatory effect of the test compounds 51, 52 and 53 was assessed in vivo in the LPS model of acute inflammation. Administration of the endotoxin Lipopolysaccharide (LPS) to mice induces acute inflammatory responses similar to the inflammatory response that occurs during the early stages of septic shock. Shortly after administration of the endotoxin, cytokines and chemokines are released. This model is fast, cost-effective and widely used for screening of anti-inflammatory properties of test items aimed for treatment of a number of inflammatory and autoimmune conditions (Seemann et al., 2017; Stortz et al., 2017).
# Sera samples from the treated mice with the 50 mg/Kg doses of the test compounds 51-53 were evaluated using the mouse pro-inflammatory panel of Legendplex and the data acquired are presented as pg/ml in Table 11. Vehicle, 52 and 53 were tested in quadruplicates (vehicle_1-4), 51 in triplicate (51_1-3).
# Sera samples from the treated mice with test compounds 53 with 100 mg/Kg were also evaluated using the mouse pro-inflammatory cytokine and chemokine panel of Legendplex and the effect of compound 53 at a higher dose (100 mg/kg) in inhibiting inflammatory cytokines and chemokines is presented in the Table 12 below.
# [1] = tested on: LPS activated thioglyclolate peritoneal macrophages; test: Cytokines and chemokines secreted from LPS activated thioglycolate peritoneal macrophages (Legendplex panels); assay type: cell-based, mice; details: for GMCSF level, percentage of untreated control cells / IL1α level, percentage of untreated control cells / IL6 level, percentage of untreated control cells / IL12p70 level, percentage of untreated control cells / IL27 level, percentage of untreated control cells / MCP1 level, percentage of untreated control cells / MIP1β level, percentage of untreated control cells / CCL5 level, percentage of untreated control cells / MDC level, percentage of untreated control cells / MIP1α level, percentage of untreated control cells: 10 μM compound, 48 h; for IC50: Mus musculus, Peritoneal macrophage, read-out: IL6 IC50
# Method: Activated peritoneal macrophages were isolated from the peritoneal lavage of C57BL/6 wild type mice, 5 days after the peritoneal administration of 3% Thioglucolate, as described in Jiménez-García et al., 2015. The isolated cells were seeded at a concentration of 5×10^5 cells/well in a 48 well plate. 4 h after isolation, cells were starved O/N in Optimem (Gibco, 11058, 100 U/ml P/S). The cells were further activated with 100 ng/ml Lipopolysaccharide (LPS, Sigma-Aldrich, L2630) along with the test compounds at a dose of 10 μM. 48 h later the supernatants of the cell cultures were collected and analyzed using the Mouse 13 plex Legendplex Chemokine (Biolegend, 740007) and Cytokine (Bioloegend, 740446) panels according the manufacturer's instructions.
# The same protocol was repeated reducing the concentration of LPS to 10 ng/ml in order to determine the efficiency of the tested compounds.
# In order to assess the anti-inflammatory activity of the compounds of the invention, their ability to reduce the levels of secreted cytokines and chemokines from activated macrophages, which are key inflammatory cells of the immune system, was measured. Test compounds 51, 52 and 53, E and F were tested at a dose of 10 μM on LPS induced thioglycolate derived peritoneal macrophages. Chemokine and cytokine analyses were performed using the Mouse pro-inflammatory panels from Legendplex and their levels are presented as a percentage of the levels detected in the untreated control cells (Tables 6a and 6b). Data presented for compounds 51, 52, 53 refer to LPS stimulation of 100 ng/ml, while compounds E and F were tested upon LPS stimulation of 10 ng/ml.
# [2] = 50 mg/Kg per os, two doses, sera 1.5 hrs post induction
Compound,"IL-1α in sera, Average (C57BL/6J mice; [2]) [pg/mL]","IL-1β in sera, Average (C57BL/6J mice; [2]) [pg/mL]","IL-6 in sera, Average (C57BL/6J mice; [2]) [pg/mL]","IL-10 in sera, Average (C57BL/6J mice; [2]) [pg/mL]","IL-17A in sera, Average (C57BL/6J mice; [2]) [pg/mL]","MCP-1 in sera, Average (C57BL/6J mice; [2]) [pg/mL]","GMCSF level, percentage of untreated control cells ([1]; LPS 100 ng/ml) [%]","IL1α level, percentage of untreated control cells ([1]; LPS 100 ng/ml) [%]","IL6 level, percentage of untreated control cells ([1]; LPS 100 ng/ml) [%]","IL12p70 level, percentage of untreated control cells ([1]; LPS 100 ng/ml) [%]","IL27 level, percentage of untreated control cells ([1]; LPS 100 ng/ml) [%]","MCP1 level, percentage of untreated control cells ([1]; LPS 100 ng/ml) [%]","MIP1β level, percentage of untreated control cells ([1]; LPS 100 ng/ml) [%]","CCL5 level, percentage of untreated control cells ([1]; LPS 10 ng/ml) [%]","IL6 level, percentage of untreated control cells ([1]; LPS 10 ng/ml) [%]","MCP1 level, percentage of untreated control cells ([1]; LPS 10 ng/ml) [%]","MDC level, percentage of untreated control cells ([1]; LPS 10 ng/ml) [%]","MIP1α level, percentage of untreated control cells ([1]; LPS 10 ng/ml) [%]","MIP1β level, percentage of untreated control cells ([1]; LPS 10 ng/ml) [%]",IC50 ([1]; LPS 10 ng/ml) [µM],other results
"COc1cc(N)c(Cl)cc1C(=O)NCC1(c2ccc(Cl)cc2)CCCCC1 [Compound 51, 4-amino-5-chloro-N-((1-(4-chlorophenyl)cyclohexyl)methyl)-2-methoxybenzamide]",27.4,87.0,4702.5,1774.5,43.8,4689.1,80,36,44,54,77,27,90,,,,,,,,
"COc1cc(N)c(Cl)cc1C(=O)NCC1(c2ccc(Cl)cc2)CCCCCC1 [Compound 52, 4-amino-5-chloro-N-((1-(4-chlorophenyl)cycloheptyl)methyl)-2-methoxybenzamide]",43.1,118.5,3988.8,1692.2,27.7,4916.5,36,9,7,23,19,28,51,,,,,,,,
"COc1cc(N)c(Cl)cc1C(=O)NCC1(Nc2ccc(Cl)cc2)CCCCCC1 [Compound 53, 4-amino-5-chloro-N-((1-((4-chlorophenyl)amino)cycloheptyl)methyl)-2-methoxybenzamide]",67.3,113.1,5145,2616.1,55.1,5149,38,30,15,18,75,75,67,,,,,,,,"GM-CSF in sera, Average (C57BL/6J mice; 100 mg/kg p.o.): 9.8; IFN-γ in sera, Average (C57BL/6J mice; 100 mg/kg p.o.): 6.7; IL12p70 in sera, Average (C57BL/6J mice; 100 mg/kg p.o.): 5.7; IL-1β in sera, Average (C57BL/6J mice; 100 mg/kg p.o.): 12.4; IL-17A in sera, Average (C57BL/6J mice; 100 mg/kg p.o.): 3.7; IL-23 in sera, Average (C57BL/6J mice; 100 mg/kg p.o.): 16.6; IL-27 in sera, Average (C57BL/6J mice; 100 mg/kg p.o.): 16.1; IP-10 in sera, Average (C57BL/6J mice; 100 mg/kg p.o.): 45.2; KC in sera, Average (C57BL/6J mice; 100 mg/kg p.o.): 4227.5; MCP1 in sera, Average (C57BL/6J mice; 100 mg/kg p.o.): 1246.2; MDC in sera, Average (C57BL/6J mice; 100 mg/kg p.o.): 56.6; MIP-1A in sera, Average (C57BL/6J mice; 100 mg/kg p.o.): 244.3; MIP-1B in sera, Average (C57BL/6J mice; 100 mg/kg p.o.): 1301.1; TNF-α in sera, Average (C57BL/6J mice; 100 mg/kg p.o.): 136.8; CCL5 level, percentage of untreated control cells ([1]; LPS 100 ng/ml): 22%; MDC level, percentage of untreated control cells ([1]; LPS 100 ng/ml): 52%; MIP1α level, percentage of untreated control cells ([1]; LPS 100 ng/ml): 60%"
"COc1cc(N)c(Cl)cc1C(=O)NCC1(Nc2ccc(F)cc2Cl)CCCCCC1 [E, 4-amino-5-chloro-N-((1-((2-chloro-4-fluorophenyl)amino)cycloheptyl)methyl)-2-methoxybenzamide]",,,,,,,,,,,,,,8,8.8,9.3,54,50,41,0.57,
"COc1cc(N)c(Cl)cc1C(=O)NCC1(Nc2cccc(OC(F)(F)F)c2)CCCCCC1 [F, 4-amino-5-chloro-2-methoxy-N-((1-((3-(trifluoromethoxy)phenyl)amino)cycloheptyl)methyl)benzamide]",,,,,,,,,,,,,,2,5.3,9,47,45,26,2.67,
